We go through 18 molecules from patent publication US12344610B2, “APOL1 inhibitors and methods of use” (Maze Therapeutics, Inc., priority 2022, dated 2025).

Common to all, as to format: cell-based
The subject of test [1] is Trypanosoma brucei Lister 427 VSG221 with APOL1 G2 recombinant protein. Description: APOL1 G2 trypanosome cell rescue assay (Example B5). Conditions: geometric mean of at least 2 assay runs, † = single assay run. In a few lines: (§1)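 Recombinant APOL1 protein, dispensed from a 2 μg/mL stock, and 250 T. brucei per well were co-incubated with test compound (0.4% DMSO) for 20 h. Viability: CellTiter-Glo luminescence.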

Test [2] deals with Trypanosoma brucei Lister 427 VSG221 with APOL1 G1 recombinant protein. Description: APOL1 G1 trypanosome cell rescue assay (Example B5). Conditions: geometric mean of at least 2 assay runs, † = single assay run. The method, boiled down: as §1
Test [3] deals with HEK293 clonal cell line overexpressing APOL1 G1. Description: APOL1 G1 HEK293 cell rescue assay (Example B3). Particulars: geometric mean of at least 2 runs, † = single run, ¥ = concentration at 50% rescue estimated (no sigmoidal curve). In a few lines:
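Rescue of cell death caused by APOL1 G1 overexpression was measured in a clonal HEK293 line. Compounds were tested in duplicate on one plate, and EC50s were geometric means across at least two runs on different days. Some values are estimated 50%-rescue concentrations where curve fitting failed.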

Where [4] appears, read: Trypanosoma brucei, 20 h, read-out: APOL1 G2 Trypanosome Rescue EC50, Trypanosoma brucei Lister 427 VSG221 with APOL1 G2 recombinant protein, 20 hours, CellTiter-Glo.
[5] abbreviates: Trypanosoma brucei, 20 h, read-out: APOL1 G1 Trypanosome Rescue EC50, Trypanosoma brucei Lister 427 VSG221 with APOL1 G1 recombinant protein, 20 hours, CellTiter-Glo.
The mark [6] stands for this setting: Homo sapiens, HEK293, HEK293 clonal line overexpressing APOL1 G1.

pEC50: −log10 of the molar value. Where two headings read alike, the source gives them in different places.

By pEC50 is commonly meant −log10 of the EC50, conventionally taken in molar units. Regarding `CNC(=O)N1CCc2cc(OCCN3CCC4(CC3)C(=O)Nc3ccc(Cl)cc34)ccc2C1` [Compound 245, 6-(2-{5-chloro-2-oxo-1,2-dihydrospiro[indole-3,4′-piperidin]-1′-yl}ethoxy)-N-methyl-1,2,3,4-tetrahydroisoquinoline-2-carboxamide], the pEC50 is 6.99 in test [1] (setting [4]), 6.42 in test [2] (setting [5]) and 6.52 in test [3] (setting [6]).
On to `CC1(O)CN(c2nccc3cc(OCCN4CCC5(CC4)C(=O)Nc4ccc(Cl)cc45)cnc23)C1` [Compound 306, 5-chloro-1′-(2-{[8-(3-hydroxy-3-methylazetidin-1-yl)-1,7-naphthyridin-3-yl]oxy}ethyl)-1,2-dihydrospiro[indole-3,4′-piperidin]-2-one], for which the pEC50 is 7.82 in test [1] (setting [4]), 7.29 in test [2] (setting [5]) and 6.61 in test [3] (setting [6]).
For the molecule `CS(=O)(=O)C1CN(C(=O)c2ccc(OCCN3CCC4(CC3)C(=O)Nc3ccc(Cl)cc34)cc2F)C1` [Compound 233, 5-chloro-1′-{2-[3-fluoro-4-(3-methanesulfonyl-azetidine-1-carbonyl)phenoxy]ethyl}-1,2-dihydrospiro[indole-3,4′-piperidin]-2-one], the negative logarithm of the EC50 (pEC50) in test [1] (setting [4]) was 7.39; in test [2] (setting [5]) it was 6.87; in test [3] (setting [6]) it was 6.61.
Regarding `CS(=O)(=O)c1ccc(OCCN2CCC3(CC2)C(=O)N(CCO)c2ccc(Br)cc23)cc1` [Compound 24, 5-bromo-1-(2-hydroxyethyl)-1′-[2-(4-methanesulfonylphenoxy)ethyl]-1,2-dihydrospiro[indole-3,4′-piperidin]-2-one], the results for the pEC50 in test [1] (setting [4]), in test [2] (setting [5]) and in test [3] (setting [6]) were 6.79, 6.12 and 6.22, respectively.
Consider `CS(=O)(=O)c1ccc(OCCN2CCC3(CC2)C(=O)Nc2ccc(Cl)cc23)cc1C(F)F` [Compound 197, 5-chloro-1′-{2-[3-(difluoromethyl)-4-methanesulfonylphenoxy]ethyl}-1,2-dihydrospiro[indole-3,4′-piperidin]-2-one], for which the figures for the pEC50 in test [1] (setting [4]), in test [2] (setting [5]) and in test [3] (setting [6]) were 7.97, 6.71 and 7.16, respectively.
In the case of `O=C(c1ccc(OCCN2CCC3(CC2)C(=O)Nc2ccc(Cl)cc23)cc1F)N1CCC1` [Compound 234, 1′-{2-[4-(azetidine-1-carbonyl)-3-fluorophenoxy]ethyl}-5-chloro-1,2-dihydrospiro[indole-3,4′-piperidin]-2-one], the values for the pEC50 in test [1] (setting [4]), in test [2] (setting [5]) and in test [3] (setting [6]) were 6.84, 6.32 and 6.63, respectively.
Take `CS(=O)(=O)C1CN(c2ncc(OCCN3CCC4(CC3)C(=O)Nc3ccc(Cl)cc34)cn2)C1` [Compound 302, 5-chloro-1′-(2-{[2-(3-methanesulfonylazetidin-1-yl)pyrimidin-5-yl]oxy}ethyl)-1,2-dihydrospiro[indole-3,4′-piperidin]-2-one]: the results for the pEC50 in test [1] (setting [4]), in test [2] (setting [5]) and in test [3] (setting [6]) were 6.85, 6.30 and 6.63, respectively.
As for `NC1CN(C(=O)c2ccc(OCCN3CCC4(CC3)C(=O)Nc3ccc(Cl)cc34)cc2F)C1` [Compound 236, 1′-{2-[4-(3-aminoazetidine-1-carbonyl)-3-fluorophenoxy]ethyl}-5-chloro-1,2-dihydrospiro[indole-3,4′-piperidin]-2-one], the pEC50 in test [1] (setting [4]) is 6.40; in test [2] (setting [5]) it was 6.06; in test [3] (setting [6]), 6.87.
For `CN(C)C(=O)c1ccc(OCCN2CCC3(CC2)C(=O)Nc2ccc(Cl)cc23)cc1F` [Compound 230, 4-(2-{5-chloro-2-oxo-1,2-dihydrospiro[indole-3,4′-piperidin]-1′-yl}ethoxy)-2-fluoro-N,N-dimethylbenzamide], the figures for the pEC50 in test [1] (setting [4]), in test [2] (setting [5]) and in test [3] (setting [6]) were 6.68, 6.10 and 6.49, respectively.
With `CNC(=O)C1(c2ccc(OCCN3CCC4(CC3)C(=O)Nc3ccc(C#N)cc34)cc2)COC1` [Compound 255, 3-[4-(2-{5-cyano-2-oxo-1,2-dihydrospiro[indole-3,4′-piperidin]-1′-yl}ethoxy)phenyl]-N-methyloxetane-3-carboxamide], the pEC50 is 6.24 in test [1] (setting [4]), 5.53 in test [2] (setting [5]) and around 5.54 in test [3] (setting [6]).
Take `O=C(c1ccc(OCCN2CCC3(CC2)C(=O)Nc2ccc(Cl)cc23)cc1F)N1CC(O)C1` [Compound 235, 5-chloro-1′-{2-[3-fluoro-4-(3-hydroxyazetidine-1-carbonyl)phenoxy]ethyl}-1,2-dihydrospiro[indole-3,4′-piperidin]-2-one]: the pEC50 in test [1] (setting [4]) was 6.88; in test [2] (setting [5]), 6.34; in test [3] (setting [6]), 6.57.
For the molecule `CN1C(=O)C2(CCN(CCOc3ccc(C4(S(C)(=O)=O)CC(O)C4)cc3)CC2)c2cc(C(F)F)ccc21` (single isomer, unassigned) [Compound 278, 5-(difluoromethyl)-1-methyl-1′-(2-{4-[(cis) or (trans)-3-hydroxy-1-methanesulfonylcyclobutyl]phenoxy}ethyl)-1,2-dihydrospiro[indole-3,4′-piperidin]-2-one], the pEC50 in test [1] (read-out: APOL1 G2 Trypanosome Rescue EC50, Trypanosoma brucei Lister 427 VSG221 with APOL1 G2 recombinant protein, 20 hours, CellTiter-Glo) was 7.59; in test [2] (read-out: APOL1 G1 Trypanosome Rescue EC50, Trypanosoma brucei Lister 427 VSG221 with APOL1 G1 recombinant protein, 20 hours, CellTiter-Glo), 6.95; in test [3] (HEK293 clonal line overexpressing APOL1 G1), 7.03.
Turning to `COCCN1C(=O)C2(CCN(CCOc3ccc(S(C)(=O)=O)cc3)CC2)c2cc(Cl)ccc21` [Compound 20, 5-chloro-1′-[2-(4-methanesulfonylphenoxy)ethyl]-1-(2-methoxyethyl)-1,2-dihydrospiro[indole-3,4′-piperidin]-2-one], the results for the pEC50 in test [1] (setting [4]), in test [2] (setting [5]) and in test [3] (setting [6]) were 6.58, 6.02 and 6.09, respectively.
Turning to `N#Cc1ccc2c(c1)C1(CCN(CCOc3ccc(C(N)=O)c(C(F)F)c3)CC1)C(=O)N2` [Compound 250, 4-(2-{5-cyano-2-oxo-1,2-dihydrospiro[indole-3,4′-piperidin]-1′-yl}ethoxy)-2-(difluoromethyl)benzamide], the pEC50 was 6.71 in test [1] (setting [4]), 6.17 in test [2] (setting [5]) and 6.72 in test [3] (setting [6]).
Take `CS(=O)(=O)c1ccc(OCCN2CCC3(CC2)C(=O)N(CCO)c2ccc(Cl)cc23)cc1` [Compound 18, 5-chloro-1-(2-hydroxyethyl)-1′-[2-(4-methanesulfonylphenoxy)ethyl]-1,2-dihydrospiro[indole-3,4′-piperidin]-2-one]: the pEC50 in test [1] (setting [4]) is 6.63; in test [2] (setting [5]), 5.81; in test [3] (setting [6]), 6.18.
As to `O=C1Nc2ccc(Cl)cc2C12CCN(CCOc1ccc3c(c1)CCS3(=O)=O)CC2` [Compound 196, 5-(2-{5-chloro-2-oxo-1,2-dihydrospiro[indole-3,4′-piperidin]-1′-yl}ethoxy)-2,3-dihydro-1λ^6-benzothiophene-1,1-dione], the negative-log EC50 (pEC50) in test [1] (setting [4]) is 7.22; in test [2] (setting [5]), 6.73; in test [3] (setting [6]), 6.68.
The corresponding values for `COCCN1C(=O)C2(CCN(CCOc3ccc(S(C)(=O)=O)cc3)CC2)c2cc(C#N)ccc21` [Compound 25, 1′-[2-(4-methanesulfonylphenoxy)ethyl]-1-(2-methoxyethyl)-2-oxo-1,2-dihydrospiro[indole-3,4′-piperidine]-5-carbonitrile] are 5.91, below 5.40 and around 5.08.
As to `CN1C(=O)C2(CCN(CCOc3cc(F)c(C(=O)N4CCS(=O)(=O)CC4)c(F)c3)CC2)c2cc(C#N)ccc21` [Compound 260, 1′-{2-[4-(1,1-dioxo-1λ^6-thiomorpholine-4-carbonyl)-3,5-difluorophenoxy]ethyl}-1-methyl-2-oxo-1,2-dihydrospiro[indole-3,4′-piperidine]-5-carbonitrile], the values for the pEC50 in test [1] (setting [4]), in test [2] (setting [5]) and in test [3] (setting [6]) were 6.96, 6.40 and 6.61, respectively.
